The source of these data is patent US5583198A, “Amino acids, peptides or derivatives thereof coupled to fats” (Commonwealth Scientific and Industrial Research Organization, priority 1989, dated 1996).

The subject of series [1] is RD10 cells (B-cell lymphoma). Put plainly: 3H-thymidine incorporation (mitogenic effect) in RD10 cells. Type of series: cell-based. How it is done:
(§1) ^3 H-thymidine incorporation experiments were carried out in Linbro-Titertek microtitre plates (Flow Laboratories, Inc., U.S.A.) following the method of L. Bradley in "Selected Methods of Cellular Immunology (1980) Eds. B. B. Mishell and S. M. Shiigi; Publisher. W. H. Freeman and Co., U.S.A. pp156. The tests were carried out externally by Dr. D. Rathjen of Peptide Technology Ltd., Dee Why, N.S.W.
1. RD10; a B-cell lymphoma (obtained from the Centre for Immunology, Sydney University, Sydney, NSW.
(§2) RD10 cells (at a cell density 5×10^5 /ml, 100 ul/well) were cultured for 20 hours at 37° C. with 5% CO2 in RPMI 1640 medium, supplemented with 10% Fetal Calf. Serum. Samples to be tested were mixed and sonicated with this medium at a concentration of 5000, 500.50 and 5 ug/ml and 100 ul aliquots added to the cells. The cells were pulsed with 0.5 uCi/well of ^3 H-thymidine and the plates incubated for four more hours before harvesting (Titertek Skatron harvester, Lier, Norway). Incorporated radioactivity was measured by liquid scintillation counting. All assays were performed in triplicate.
Background: Uptake of a labelled nucleoside into DNA is a usual measure of proliferation.

Series [2] concerns U937 cells (human monocyte-like histiocytic lymphoma). Briefly: 3H-thymidine incorporation (mitogenic effect) in U937 cells. Type of series: cell-based. How it is done:
as §1
2. U937; a human monocyte-like3 histiocytic lymphoma (source: American Tissue Culture Collection).
as §2

The target of series [3] is T1, papain (Carica papaya, UniProt P00784).
T1 construct: purchased Sigma
T1 sequence (P00784 134-345): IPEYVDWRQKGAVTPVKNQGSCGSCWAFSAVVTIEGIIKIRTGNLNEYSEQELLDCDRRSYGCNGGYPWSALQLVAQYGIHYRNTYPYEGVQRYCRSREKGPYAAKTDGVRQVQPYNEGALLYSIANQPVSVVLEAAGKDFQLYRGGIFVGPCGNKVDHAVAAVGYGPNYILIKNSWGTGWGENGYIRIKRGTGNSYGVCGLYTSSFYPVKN
Briefly: Protease treatment with papain (hydrolysis followed by HPLC). Type of series: biochemical. To be noted: phosphate buffer pH 6.5, enzyme/substrate 1:50, HPLC monitoring; main product Z-Ala-OH / Z-Gly-OH. On the procedure: (§3) Z-Gly-TRIS and Z-Ala-TRIS were incubated with papain, and Z-Leu-Arg-TRIS with trypsin, to test that the action of proteolytic enzymes could regenerate the starting compounds Z-Gly-OH, Z-Ala-OH and Z-Leu-Arg-OH respectively.
50 ul of a suspension of papain (25 mg/ml, Sigma) was incubated with 20 mM aqueous solution of EDTA (50 ul); 1 Molar solution of mercaptoethanol (25 ul); 50 mM triethylamine (25 ul); and water (100 ul) at 37° C. for 30 min.
a) Papain. Z-Ala-TRIS in 50 mmolar phosphate buffer pH 6.5 (650 ul), 20 mM ethylene-diamise-tetra-acetic acid (100 ul) and water to 1 ml. Activated papain (5 mg/ml) was added to a final enzyme/substrate ratio of 1:50. The reaction was followed by HPLC on C18 reverse phase columns and the hydrolysis product identified by co-chromatography with standards. Blanks were incubated as above using water instead of enzyme solution.

The target of series [4] is T2, TPCK trypsin (Bos taurus, UniProt P00760).
T2 sequence (P00760 24-246): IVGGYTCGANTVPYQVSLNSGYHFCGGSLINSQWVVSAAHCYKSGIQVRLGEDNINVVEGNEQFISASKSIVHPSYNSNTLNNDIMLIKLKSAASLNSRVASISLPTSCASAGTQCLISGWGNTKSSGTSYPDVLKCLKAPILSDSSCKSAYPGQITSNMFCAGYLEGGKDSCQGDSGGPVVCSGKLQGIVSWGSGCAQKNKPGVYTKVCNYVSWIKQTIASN
Briefly: Protease treatment with trypsin (hydrolysis followed by HPLC). To be noted: 0.2M ammonium hydrogen carbonate, 37° C., enzyme/substrate 1:50; product Z-Leu-Arg-OH. Type of series: biochemical. On the procedure: as §3
b) Trypsin. Z-Leu-Arg-TRIS was incubated at a concentration between 2 and 10 mg/ml in 0.2M ammonium hydrogen carbonate. Freshly prepared TPCK trypsin (1 mg/ml in water) was added to the solution giving a final enzyme/substrate ratio of 1:50. Samples were incubated at 37° C. and aliquots examined by reverse phase HPLC. Additional amounts of enzyme were added as required.

The subject of series [5] is RD10 cells (B-cell lymphoma). To be noted: under these conditions; cited from earlier work.

Turning to `CCCCCCCCCCCCCCCC(=O)OCC(COC(=O)CCCCCCCCCCCCCCC)(COC(=O)CCCCCCCCCCCCCCC)NC(=O)C(C)N` (stereo not drawn) [Ala-TRIS-Tripalmitate], the “3H-thymidine uptake response compared with Z-Ala-TRIS-Tripalmitate” value in series [1] is recorded as “slightly diminished response”. Moreover, the Thymidine incorporation entry in series [2] was “slightly diminished responses”.
With `CCCCCCCCCCCCCCCC(=O)OCC(COC(=O)CCCCCCCCCCCCCCC)(COC(=O)CCCCCCCCCCCCCCC)NC(=O)C(C)NC(=O)OCc1ccccc1` (stereo not drawn) [Z-Ala-TRIS-Tripalmitate, Z-Ala-TRIS-TRIPALMITATE], the “3H-thymidine uptake: increase in cell proliferation compared to control” value in series [1] (20 hours culture, 4 hours pulse) was 3-4 fold. In addition, the Thymidine incorporation result in series [2] is “close to control”. Besides, the cytotoxic effects result in series [2] (at higher concentrations) is reported as “slight cytotoxic effects”.
For `CC(NC(=O)OCc1ccccc1)C(=O)NC(CO)(CO)CO` (stereo not drawn) [Z-Ala-TRIS], in series [3], the “enzymatic hydrolysis by papain” value is listed as “hydrolysed by papain, albeit very slowly”.
With `O=C(CNC(=O)OCc1ccccc1)NC(CO)(CO)CO` [Z-Gly-TRIS], the “enzymatic hydrolysis by papain” value in series [3] is on record as “hydrolysed by papain, albeit very slowly”.
Regarding `CC(C)C[C@H](NC(=O)OCc1ccccc1)C(=O)N[C@@H](CCCNC(=N)N)C(=O)NC(CO)(CO)CO` [Z-Leu-Arg-TRIS], the “enzymatic hydrolysis by trypsin” value in series [4] is given as “hydrolyzed slowly”.
Regarding phytohaemagglutinin, in series [5], the “3H-thymidine uptake: increase in cell proliferation (known mitogen, for comparison)” value is reported as 5-10 fold.
